Measured values reported in US9630977B2, “Cephalosporin derivatives and pharmaceutical compositions thereof” (Legochem Biosciences, Inc., priority 2011, dated 2017).
Converted amounts (≈) assume the structure as drawn. Like-named read-outs stand apart in the source and are kept apart here.

How the values were obtained:
A. baumannii 46 = test: In vitro antibacterial activity test (broth microdilution); type: cell-based; settings: A. baumannii 46
Outline: (§1)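 MIC90 was determined by CLSI broth microdilution against clinical isolates, as the lowest concentration inhibiting visible growth of 90% of organisms relative to untreated control. Final compound concentrations spanned 0.0626–128 ug/mL with 2.5% (V/V) DMSO.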

A. baumannii 49 = test: as above; type: cell-based; settings: A. baumannii 49
Outline: as §1

A. baumannii 52 = test: as above; type: cell-based; settings: A. baumannii 52
Outline: as §1

[1] = system: A. calcoaceticus ATCC15473; test: as above; type: cell-based; settings: A. calcoaceticus ATCC15473
Outline: as §1

E. cloacae β19 = test: as above; type: cell-based
Outline: as §1

E. coli AG100 = test: as above; type: cell-based
Outline: as §1

E. coli β4 = test: as above; type: cell-based
Outline: as §1

K. pneumoniae 2011E = test: as above; type: cell-based; settings: K. pneumoniae 2011E
Outline: as §1

K. pneumoniae β10 = test: as above; type: cell-based; settings: K. pneumoniae β10
Outline: as §1

K. pneumoniae β11 = test: as above; type: cell-based; settings: K. pneumoniae β11
Outline: as §1

K. pneumoniae β13 = test: as above; type: cell-based; settings: K. pneumoniae β13
Outline: as §1

K. pneumoniae β14 = test: as above; type: cell-based
Outline: as §1

K. pneumoniae β9 = test: as above; type: cell-based; settings: K. pneumoniae β9
Outline: as §1

M. catarrhalis 2524 = test: as above; type: cell-based; settings: M. catarrhalis 2524
Outline: as §1

P. aeruginosa 1912E [2] = test: as above; type: cell-based
Outline: as §1

P. aeruginosa 37 = test: as above; type: cell-based
Outline: as §1

P. aeruginosa 40 = test: as above; type: cell-based
Outline: as §1

P. aeruginosa 43 = test: as above; type: cell-based; settings: P. aeruginosa 43
Outline: as §1

P. aeruginosa 6065Y = test: as above; type: cell-based
Outline: as §1

[3] = system: A. baumannii (6 clinical isolates); test: Antibacterial activity on representative drug-resistance bacteria: number of clinical isolates per MIC value; type: cell-based; settings: A. baumanni (N = 6)
Procedure: (§2) The in vitro antibacterial activity was evaluated by measuring MIC90 (ug/mL) of each of the compounds of Examples 1 to 68, which is defined as the lowest concentration of an antibiotic that will inhibit the visible growth of 90% of microorganisms after incubation as compared with a control group to which the antibiotic is not treated. MIC90 values were measured by the broth microdilution method developed by the Clinical and Laboratory Standards Institute (CLSI) (see CLSI M7-A5, Methods for Dilution Antimicrobial Susceptibility Test for Bacteria that Grow Aerobically-Fifth Edition (2000): CLSI, Villanova, Pa.).
(§3) Test compounds each (the cephalosporin derivative compounds prepared in Examples 1 to 68) were dissolved in DMSO at the concentration of 10,240 ug/mL, were diluted by two fold with DMSO, and then were diluted by twenty fold with sterilized distilled water. The final concentration in the antibacterial activity test was in the range of […] to 128 ug/mL, and the final concentration of DMSO used as an adjuvant was 2.5% (V/V).

[4] = system: K. pneumoniae (38 clinical isolates); test: as above; type: cell-based; settings: K. pneumomiae (N = 38)
Procedure: as §2, §3

[5] = system: P. aeruginosa (16 clinical isolates); test: as above; type: cell-based; settings: P. aeruginosa (N = 16)
Procedure: as §2, §3

P. aeruginosa 1912E [6] = test: In vivo efficacy, whole-body infected mouse model, Ceftazidime-sensitive bacteria; design: species or system ICR mouse; settings: P. aeruginosa 1912E (2 × 10^6CFU/mouse); for Survival rate: four days
Procedure: (§4) Pharmaceutical efficacy of the cephalosporin derivative compounds according to the present invention was evaluated in a whole-body infected mouse model. Tables 3 and 4 show survival rate and ED50 values for the two compounds with excellent antibacterial activity with regard to an infected mouse by a drug-sensitive bacteria and a drug-resistant bacteria.
(§5) Test animals: 3 week old male ICR mouse, weight 18˜22 g; 5 mice/group.
(§6) Lab conditions: Temperature of 23±2° C.; humidity of 55±20%.
(§7) Administration method: Inducing whole-body infection by bacterial solution followed by subcutaneous injection (0.2 mL) after 1 hour and 4 hours.
(§8) Test method: Cultured bacteria were diluted with 0.9% NaCl to prepare a bacterial solution having a concentration that is 5 to 10 times of […]. 0.5 mL of bacterial solution was injected through abdominal cavity to induce whole-body infection. Test compounds were administered in four different amounts, which were designed considering in vitro MIC values of the test bacteria. After 1 hour and 4 hours, the four different amounts of the test compounds were subcutaneously administered. Survival rates were measured for four days and ED50 values were calculated according to the Probit method.

P. aeruginosa R1023 = test: In vivo efficacy, whole-body infected mouse model, Ceftazidime-resistant bacteria;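 on Survival rate: each column one dose of 5 10 20 or 40 mg/kg given sc at 1 h and 4 h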; design: species or system ICR mouse; settings: for Survival rate: subcutaneous 1 h and 4 h after infection, P. aeruginosa R1023 (2 × 10^6 CFU/mouse), four days
Procedure: as §4, §5, §6, §7, §8

19 clinical isolates = test: In vitro antibacterial activity test, panel of 19 clinical isolates as a whole; type: cell-based; settings: effect of a siderophore group, Table 1
Procedure: To evaluate antibacterial activity of each of the compounds of Examples 1 to 68, in vitro antibacterial activity test was performed.
as §2
In vitro antibacterial activity was measured with respect to the following 19 clinical isolates: M. catarrhalis; P. aeruginosa (5 strains); K. pneumoniae (6 strains); A. baumannii (3 strains); E. coli (2 strains); A. calcoaceticus; and E. cloacae.
as §3

[7] = Acinetobacter baumannii, read-out: MIC90
[8] = Klebsiella pneumoniae, read-out: MIC90
[9] = Pseudomonas aeruginosa, read-out: MIC90

`CC(C)(O/N=C(\C(=O)N[C@@H]1C(=O)N2C(C(=O)[O-])=C(C[n+]3ccccc3)CS[C@H]12)c1csc(N)n1)C(=O)O` [Ceftazidime, reference compound] gave an MIC90 (A. baumannii 46; [7]) of 4 µg/mL (≈ 7.32 µM), an MIC90 (A. baumannii 49; [7]) greater than 64 µg/mL and an MIC90 (A. baumannii 52; [7]) greater than 64 µg/mL. For the same compound, the MIC90 ([1]; Acinetobacter calcoaceticus, read-out: MIC90) was 1 µg/mL (≈ 1.83 µM), the MIC90 (E. cloacae β19; Enterobacter cloacae, read-out: MIC90) was 32 µg/mL (≈ 58.5 µM) and the MIC90 (E. coli AG100; Escherichia coli, AG100, E. coli AG100, read-out: MIC90) was 0.5 µg/mL (≈ 0.915 µM). The MIC90 (E. coli β4; Escherichia coli, read-out: MIC90) was 8 µg/mL (≈ 14.6 µM), the MIC90 (K. pneumoniae 2011E; Klebsiella pneumoniae, 2011E, read-out: MIC90) was 1 µg/mL (≈ 1.83 µM) and the MIC90 (K. pneumoniae β10; [8]) was 32 µg/mL (≈ 58.5 µM). It also gave an MIC90 (K. pneumoniae β11; [8]) of 64 µg/mL (≈ 117 µM), an MIC90 (K. pneumoniae β13; [8]) of 32 µg/mL (≈ 58.5 µM) and an MIC90 (K. pneumoniae β14; [8]) of 64 µg/mL (≈ 117 µM). It also gave an MIC90 (K. pneumoniae β9; [8]) of 16 µg/mL (≈ 29.3 µM), an MIC90 (M. catarrhalis 2524; Moraxella catarrhalis, read-out: MIC90) of less than 0.0625 µg/mL and an MIC90 (P. aeruginosa 1912E [2]; Pseudomonas aeruginosa, 1912E, read-out: MIC90) of 1 µg/mL (≈ 1.83 µM). The MIC90 (P. aeruginosa 37; Pseudomonas aeruginosa, 37, P. aeruginosa 37, read-out: MIC90) was 64 µg/mL (≈ 117 µM), the MIC90 (P. aeruginosa 40; Pseudomonas aeruginosa, 40, P. aeruginosa 40, read-out: MIC90) was 4 µg/mL (≈ 7.32 µM) and the MIC90 (P. aeruginosa 43; [9]) was 16 µg/mL (≈ 29.3 µM). The MIC90 (P. aeruginosa 6065Y; [9]) was 32 µg/mL (≈ 58.5 µM), the “number of clinical isolates that showed the respective MIC value” (“number” for short) ([3]; MIC >16 ug/mL) was 6 and the “number” value ([4]; MIC 0.5 ug/mL) was 2. For the same compound, the “number” value ([4]; MIC 4 ug/mL) was 1, the “number” value ([4]; MIC 16 ug/mL) was 3 and the “number” value ([4]; MIC >16 ug/mL) was 32. For the same compound, the “number” value ([5]; MIC 2 ug/mL) was 1, the “number” value ([5]; MIC 4 ug/mL) was 2 and the “number” value ([5]; MIC 8 ug/mL) was 1. The “number” value ([5]; MIC 16 ug/mL) was 1, the “number” value ([5]; MIC >16 ug/mL) was 11 and the Survival rate (P. aeruginosa 1912E [6]; 2.5 mg/kg subcutaneous after 1 hour and 4 hours) was 40%. The Survival rate (P. aeruginosa 1912E [6]; 5 mg/kg subcutaneous after 1 hour and 4 hours) was 80%, the Survival rate (P. aeruginosa 1912E [6]; 10 mg/kg subcutaneous after 1 hour and 4 hours) was 100% and the Survival rate (P. aeruginosa 1912E [6]; 20 mg/kg subcutaneous after 1 hour and 4 hours) was 100%. The ED50 (P. aeruginosa 1912E [6]; Pseudomonas aeruginosa, sc, subcutaneous, Probit method) was 2.5 mg/kg, the ED50 (P. aeruginosa R1023; Pseudomonas aeruginosa, sc, Probit method, subcutaneous, mouse infected by Ceftazidime-resistant P. aeruginosa R1023) was 640 mg/kg and the Survival rate (P. aeruginosa R1023; administered amount 5 mg/kg) was 0%. The Survival rate (P. aeruginosa R1023; administered amount 10 mg/kg) was 20%, the Survival rate (P. aeruginosa R1023; administered amount 20 mg/kg) was 20% and the Survival rate (P. aeruginosa R1023; administered amount 40 mg/kg) was 20%.

For `CC(C)(O/N=C(\C(=O)N[C@@H]1C(=O)N2C(C(=O)[O-])=C(/C=C/C[n+]3cnc(N)c(NCCNC(=O)c4cc(=O)c(O)cn4O)c3)CSC12)c1csc(N)n1)C(=O)O` (stereo partly shown) [Compound 11], the MIC90 (A. baumannii 46) was 4 µg/mL (≈ 5 µM), the MIC90 (A. baumannii 49) was greater than 128 µg/mL and the MIC90 (A. baumannii 52) was greater than 128 µg/mL. The MIC90 [1] was 1 µg/mL (≈ 1.25 µM), the MIC90 (E. cloacae β19) was 64 µg/mL (≈ 80 µM) and the MIC90 (E. coli AG100; E. coli AG100) was 0.125 µg/mL (≈ 0.156 µM). The MIC90 (E. coli β4) was 0.125 µg/mL (≈ 0.156 µM), the MIC90 (K. pneumoniae 2011E) was 0.5 µg/mL (≈ 0.625 µM) and the MIC90 (K. pneumoniae β10) was less than 0.0625 µg/mL. It also gave an MIC90 (K. pneumoniae β11) greater than 128 µg/mL, an MIC90 (K. pneumoniae β13) of less than 0.0625 µg/mL and an MIC90 (K. pneumoniae β14) of 8 µg/mL (≈ 10 µM). The MIC90 (K. pneumoniae β9) was less than 0.0625 µg/mL, the MIC90 (M. catarrhalis 2524) was 0.25 µg/mL (≈ 0.313 µM) and the MIC90 (P. aeruginosa 1912E [2]) was 1 µg/mL (≈ 1.25 µM). It also gave an MIC90 (P. aeruginosa 37; P. aeruginosa 37) of 1 µg/mL (≈ 1.25 µM), an MIC90 (P. aeruginosa 40; P. aeruginosa 40) of 0.5 µg/mL (≈ 0.625 µM) and an MIC90 (P. aeruginosa 43) of 1 µg/mL (≈ 1.25 µM). The MIC90 (P. aeruginosa 6065Y) was 4 µg/mL (≈ 5 µM), the “number” value ([3]; MIC 2 ug/mL) was 1 and the “number” value ([3]; MIC >16 ug/mL) was 5. For the same compound, the “number” value ([4]; MIC 0.5 ug/mL) was 1, the “number” value ([4]; MIC 2 ug/mL) was 1 and the “number” value ([4]; MIC 8 ug/mL) was 1. For the same compound, the “number” value ([4]; MIC >16 ug/mL) was 35, the “number” value ([5]; MIC 0.125 ug/mL) was 1 and the “number” value ([5]; MIC 0.5 ug/mL) was 3. The “number” value ([5]; MIC 1 ug/mL) was 2, the “number” value ([5]; MIC 2 ug/mL) was 2 and the “number” value ([5]; MIC 4 ug/mL) was 3. For the same compound, the “number” value ([5]; MIC 8 ug/mL) was 2, the “number” value ([5]; MIC 16 ug/mL) was 1 and the “number” value ([5]; MIC >16 ug/mL) was 2. For the same compound, the “antibacterial activity (in words)” value (19 clinical isolates) was “significantly improved”.
